Measurements taken from patent publication US3991202A, “Imidazolium salts” (Janssen Pharmaceutica N.V., priority 1974, dated 1976).
Where two headings read alike, the source gives them in different places.

Experiments:
Experiment in all cases: Antibacterial growth inhibition in phenol red dextrose broth
Format in all cases: cell-based
Pseudomonas aeruginosa = conditions: 168 h, Ps. aer., read-out: Concentration in μ g for 100% Growth Inhibition
Experimental: (§1) The tests on bacteria were performed on cultures on phenol red dextrose broth medium (Difco). By using decimal dilution techniques described for the tests for antifungal activity, test media containing 100 μg, 10 μg and 1 μg of imidazolium salt per milliliter of medium were obtained. The inoculum consisted of a platinum loop (5 mm diameter) from a 24 hour broth culture. Forty-eight hours after incubation, subcultures were made from each culture for the determination of antibacterial activity of the imidazolium salts. After seven days of incubation, observations were made to determine the presence or absence of bacterial growth.

Streptococcus pyogenes = conditions: 168 h, Strep., tested at 100, 10, 1 μg/ml, read-out: Concentration in μ g for 100% Growth Inhibition
Experimental: as §1

[1] = test system: Salmonella pullorum gallinarum; conditions: Salmonella enterica, 168 h; Sp. G.; tested at 100, 10, 1 μg/ml; read-out: Concentration in μ g for 100% Growth Inhibition
Experimental: as §1

[2] = test system: Staphylococcus hemolyticus; conditions: 168 h, Staph., tested at 100, 10, 1 μg/ml, read-out: Concentration in μ g for 100% Growth Inhibition
Experimental: as §1

Erysipelothrix insidiosa = conditions: Erysipelothrix rhusiopathiae, 168 h; E. ins.; tested at 100, 10, 1 μg/ml; read-out: Concentration in μ g for 100% Growth Inhibition
Experimental: as §1

Escherichia coli = conditions: 168 h, E. coli, tested at 100, 10, 1 μg/ml, read-out: Concentration in μ g for 100% Growth Inhibition
Experimental: as §1

## Fc1ccc(C(c2ccccc2)[n+]2ccn(CC(OCc3ccc(Cl)cc3Cl)c3ccc(Cl)cc3Cl)c2)cc1 (stereo not drawn)
Pseudomonas aeruginosa; tested at 100, 10, 1 μg/ml
  MIC: 100 µg/mL
Streptococcus pyogenes
  MIC: 1 µg/mL
[1]
  MIC: 10 µg/mL
[2]
  MIC: 1 µg/mL
Erysipelothrix insidiosa
  MIC: 1 µg/mL
Escherichia coli
  MIC: 10 µg/mL

## Clc1ccc(Cn2cc[n+](CC(OCc3c(Cl)cccc3Cl)c3ccc(Cl)cc3Cl)c2)c(Cl)c1.[Cl-] (stereo not drawn) [1-(2,4-Dichlorobenzyl)-3-[2,4-dichloro-β-(2,6-dichlorobenzyloxy)phenethyl]imidazolium chloride]
Pseudomonas aeruginosa; tested at 100, 10, 1 μg/ml
  MIC: 100 µg/mL
Streptococcus pyogenes
  MIC: 1 µg/mL
[1]
  MIC: 10 µg/mL
[2]
  MIC: 1 µg/mL
Erysipelothrix insidiosa
  MIC: 1 µg/mL
Escherichia coli
  MIC: 10 µg/mL

## Cc1ccccc1NC(=O)C[n+]1ccn(CC(OCc2c(Cl)cccc2Cl)c2ccc(Cl)cc2Cl)c1 (stereo not drawn) [1-[2,4-dichloro-β-(2,6-dichlorobenzyloxy)phenethyl]-3-(N-o-tolylcarbamoylmethyl)imidazolium chloride]
Pseudomonas aeruginosa; tested at 100, 10, 1 μg/ml
  MIC: 100 µg/mL
Streptococcus pyogenes
  MIC: 1 µg/mL
[1]
  MIC: 10 µg/mL
[2]
  MIC: 10 µg/mL
Erysipelothrix insidiosa
  MIC: 10 µg/mL
Escherichia coli
  MIC: 100 µg/mL

## O=C(C[n+]1ccn(CC(OCc2c(Cl)cccc2Cl)c2ccc(Cl)cc2Cl)c1)Nc1ccc(F)cc1 (stereo not drawn) [1-[2,4-dichloro-β-(2,6-dichlorobenzyloxy)phenethyl]-3-[N-(p-fluorophenyl)carbamoylmethyl]imidazolium chloride]
Pseudomonas aeruginosa; tested at 100, 10, 1 μg/ml
  MIC: 100 µg/mL
Streptococcus pyogenes
  MIC: 1 µg/mL
[1]
  MIC: 10 µg/mL
[2]
  MIC: 1 µg/mL
Erysipelothrix insidiosa
  MIC: 1 µg/mL
Escherichia coli
  MIC: 10 µg/mL

## O.OC(C[n+]1ccn(CC(OCc2ccc(Cl)cc2)c2ccc(Cl)cc2Cl)c1)c1ccc(Cl)cc1.[Br-] (stereo not drawn) [2,4(Cl)2C6H3/CH2C6H4pCl/CH2CHOHC6H4pCl, 1-[β-(p-Chlorobenzyloxy)-2,4-dichlorophenethyl]-3-(p-chloro-β-hydroxyphenethyl)imidazolium bromide hydrate]
Pseudomonas aeruginosa; tested at 100, 10, 1 μg/ml
  MIC: 100 µg/mL
Streptococcus pyogenes
  MIC: 1 µg/mL
[1]
  MIC: 10 µg/mL
[2]
  MIC: 1 µg/mL
Erysipelothrix insidiosa
  MIC: 1 µg/mL
Escherichia coli
  MIC: 10 µg/mL

## O=C(C[n+]1ccn(CC(OCc2ccc(Cl)cc2)c2ccc(Cl)cc2Cl)c1)c1ccc(F)cc1.[Cl-] (stereo not drawn) [2,4(Cl)2C6H3/CH2C6H4pCl/CH2COC6H4pF, 1-[2,4-Dichloro-β-(p-chlorobenzyloxy)phenethyl]-3-(p-fluorophenacyl)imidazolium chloride]
Pseudomonas aeruginosa; tested at 100, 10, 1 μg/ml
  MIC: 100 µg/mL
Streptococcus pyogenes
  MIC: 1 µg/mL
[1]
  MIC: 10 µg/mL
[2]
  MIC: 1 µg/mL
Erysipelothrix insidiosa
  MIC: 1 µg/mL
Escherichia coli
  MIC: 100 µg/mL

## Fc1ccc(CC[n+]2ccn(CC(OCc3ccc(Cl)cc3Cl)c3ccc(Cl)cc3Cl)c2)cc1.O.[Br-] (stereo not drawn) [(CH2)2C6H4pF, 1-[2,4-Dichloro-β-(2,4-dichlorobenzyloxy)phenethyl]-3-(p-fluorophenethyl)imidazolium bromide hydrate]
Pseudomonas aeruginosa; tested at 100, 10, 1 μg/ml
  MIC: 100 µg/mL
Streptococcus pyogenes
  MIC: 1 µg/mL
[1]
  MIC: 10 µg/mL
[2]
  MIC: 1 µg/mL
Erysipelothrix insidiosa
  MIC: 10 µg/mL
Escherichia coli
  MIC: 100 µg/mL

## COc1ccc(CC[n+]2ccn(CC(OCc3ccc(Cl)cc3Cl)c3ccc(Cl)cc3Cl)c2)cc1.[Cl-] (stereo not drawn) [(CH2)2C6H4pOCH3, 1-[2,4-dichloro-β-(2,4-dichlorobenzyloxy)phenethyl]-3-(p-methoxyphenethyl)imidazolium chloride]
Pseudomonas aeruginosa; tested at 100, 10, 1 μg/ml
  MIC: 100 µg/mL
Streptococcus pyogenes
  MIC: 1 µg/mL
[1]
  MIC: 10 µg/mL
[2]
  MIC: 1 µg/mL
Erysipelothrix insidiosa
  MIC: 1 µg/mL
Escherichia coli
  MIC: 100 µg/mL

## Clc1ccc(COC(Cn2cc[n+](CCc3ccccc3)c2)c2ccc(Cl)cc2Cl)c(Cl)c1.[Br-] (stereo not drawn) [(CH2)2C6H5, 1-[2,4-Dichloro-β-(2,4-dichlorobenzyloxy)phenethyl]-3-phenethylimidazolium bromide]
Pseudomonas aeruginosa; tested at 100, 10, 1 μg/ml
  MIC: 100 µg/mL
Streptococcus pyogenes
  MIC: 1 µg/mL
[1]
  MIC: 10 µg/mL
[2]
  MIC: 1 µg/mL
Erysipelothrix insidiosa
  MIC: 1 µg/mL
Escherichia coli
  MIC: 10 µg/mL

## O=C(CCn1cc[n+](CC(OCc2ccc(Cl)cc2Cl)c2ccc(Cl)cc2Cl)c1)Nc1ccccc1Cl.[Cl-] (stereo not drawn) [(CH2)2CONHC6H4oCl, 1-{2-[N-(o-Chlorophenyl)carbamoyl]ethyl}-3-[2,4-dichloro-β-(2,4-dichlorobenzyloxy)phenethyl]imidazolium chloride]
Pseudomonas aeruginosa; tested at 100, 10, 1 μg/ml
  MIC: 100 µg/mL
Streptococcus pyogenes
  MIC: 1 µg/mL
[1]
  MIC: 10 µg/mL
[2]
  MIC: 1 µg/mL
Erysipelothrix insidiosa
  MIC: 1 µg/mL
Escherichia coli
  MIC: 10 µg/mL

## Cc1cc(Cl)ccc1NC(=O)CCn1cc[n+](CC(OCc2ccc(Cl)cc2Cl)c2ccc(Cl)cc2Cl)c1.[Cl-] (stereo not drawn) [(CH2)2CONHC6H32,4(CH3,Cl), 1-{2-[N-(4-chloro-o-tolyl)carbamoyl]ethyl}-3-[2,4-dichloro-β-(2,4-dichlorobenzyloxy)phenethyl]imidazolium chloride]
Pseudomonas aeruginosa; tested at 100, 10, 1 μg/ml
  MIC: 100 µg/mL
Streptococcus pyogenes
  MIC: 1 µg/mL
[1]
  MIC: 10 µg/mL
[2]
  MIC: 1 µg/mL
Erysipelothrix insidiosa
  MIC: 1 µg/mL
Escherichia coli
  MIC: 100 µg/mL

## Clc1ccc(COC(C[n+]2ccn(CCNc3ccccc3)c2)c2ccc(Cl)cc2Cl)c(Cl)c1.[Br-] (stereo not drawn) [(CH2)2NHC6H5, 1-(2-Anilinoethyl)-3-[2,4-dichloro-β-(2,4-dichlorobenzyloxy)phenethyl]imidazolium bromide]
Pseudomonas aeruginosa; tested at 100, 10, 1 μg/ml
  MIC: 100 µg/mL
Streptococcus pyogenes
  MIC: 1 µg/mL
[1]
  MIC: 10 µg/mL
[2]
  MIC: 1 µg/mL
Erysipelothrix insidiosa
  MIC: 1 µg/mL
Escherichia coli
  MIC: 10 µg/mL

## Clc1ccc(COC(C[n+]2ccn(CCNc3c(Cl)cccc3Cl)c2)c2ccc(Cl)cc2Cl)c(Cl)c1.O.[Br-] (stereo not drawn) [(CH2)2NHC6H32,6(Cl)2, 1-[2-(2,6-Dichloroanilino)ethyl]-3-[2,4-dichloro-β-(2,4-dichlorobenzyloxy)phenethyl]imidazolium bromide hydrate]
Pseudomonas aeruginosa; tested at 100, 10, 1 μg/ml
  MIC: 100 µg/mL
Streptococcus pyogenes
  MIC: 1 µg/mL
[1]
  MIC: 10 µg/mL
[2]
  MIC: 1 µg/mL
Erysipelothrix insidiosa
  MIC: 1 µg/mL
Escherichia coli
  MIC: 10 µg/mL

## CCCCOC(Cn1cc[n+](CC(=O)Nc2ccc(F)cc2)c1)c1ccccc1Cl (stereo not drawn) [C6H4oCl/nC4H9/CH2CONHC6H4pF]
Pseudomonas aeruginosa; tested at 100, 10, 1 μg/ml
  MIC: 100 µg/mL
Streptococcus pyogenes
  MIC: 10 µg/mL
[1]
  MIC: 100 µg/mL
[2]
  MIC: 100 µg/mL
Erysipelothrix insidiosa
  MIC: 10 µg/mL
Escherichia coli
  MIC: 100 µg/mL

## Cc1ccccc1NC(=O)C[n+]1ccn(CC(OCc2ccc(Cl)cc2)c2ccc(Cl)cc2)c1 (stereo not drawn) [C6H4pCl/CH2C6H4pCl/CH2CONHC6H4oCH3, 1-[p-Chloro-β-(p-chlorobenzyloxy)phenethyl]-3-(N-o-toylcarbamoylmethyl)imidazolium chloride]
Pseudomonas aeruginosa; tested at 100, 10, 1 μg/ml
  MIC: 100 µg/mL
Streptococcus pyogenes
  MIC: 10 µg/mL
[1]
  MIC: 100 µg/mL
[2]
  MIC: 10 µg/mL
Erysipelothrix insidiosa
  MIC: 10 µg/mL
Escherichia coli
  MIC: 100 µg/mL

## Cc1ccccc1NC(=O)C[n+]1ccn(CC(OCc2ccc(Cl)cc2Cl)c2ccc(Cl)cc2)c1 (stereo not drawn) [C6H4pCl/CH2C6H32,4(Cl)2/CH2CONHC6H4oCH3, 1-[p-Chloro-β-(2,4-dichlorobenzyloxy)phenethyl]-3-(N-o-tolylcarbamoylmethyl)imidazolium chloride hydrate]
Pseudomonas aeruginosa; tested at 100, 10, 1 μg/ml
  MIC: 100 µg/mL
Streptococcus pyogenes
  MIC: 1 µg/mL
[1]
  MIC: 10 µg/mL
[2]
  MIC: 100 µg/mL
Erysipelothrix insidiosa
  MIC: 1 µg/mL
Escherichia coli
  MIC: 100 µg/mL

## O=C(C[n+]1ccn(CC(OCc2ccc(Cl)cc2Cl)c2ccc(Cl)cc2)c1)Nc1ccc(F)cc1 (stereo not drawn) [C6H4pCl/CH2C6H32,4(Cl)2/CH2CONHC6H4pF, 1-[p-chloro-β-(2,4-dichlorobenzyloxy)phenethyl]-3-[N-(p-fluorophenyl)carbamoyl-methyl]imidazolium chloride]
Pseudomonas aeruginosa; tested at 100, 10, 1 μg/ml
  MIC: 100 µg/mL
Streptococcus pyogenes
  MIC: 1 µg/mL
[1]
  MIC: 10 µg/mL
[2]
  MIC: 10 µg/mL
Erysipelothrix insidiosa
  MIC: 1 µg/mL
Escherichia coli
  MIC: 10 µg/mL

## Clc1ccc(COC(C[n+]2ccn(Cc3ccccc3)c2)c2ccccc2)cc1.[Br-] (stereo not drawn) [C6H5/CH2C6H4pCl/CH2C6H5, 1-Benzyl-3-[β-(p-chlorobenzyloxy)phenethyl]imidazolium bromide]
Pseudomonas aeruginosa; growth observed at 100 μg/ml
  MIC: > 100 µg/mL
Streptococcus pyogenes
  MIC: 10 µg/mL
[1]
  MIC: 100 µg/mL
[2]
  MIC: 10 µg/mL
Erysipelothrix insidiosa
  MIC: 100 µg/mL
Escherichia coli
  MIC: 100 µg/mL

## Cc1ccc(C[n+]2ccn(CC(OCc3ccc(Cl)cc3Cl)c3ccc(Cl)cc3Cl)c2)cc1.[Br-] (stereo not drawn) [CH2C6H4pCH3, 1-[2,4-Dichloro-β-(2,4-dichlorobenzyloxy)phenethyl]-3-(p-methylbenzyl)imidazolium bromide]
Pseudomonas aeruginosa; tested at 100, 10, 1 μg/ml
  MIC: 100 µg/mL
Streptococcus pyogenes
  MIC: 1 µg/mL
[1]
  MIC: 100 µg/mL
[2]
  MIC: 1 µg/mL
Erysipelothrix insidiosa
  MIC: 10 µg/mL
Escherichia coli
  MIC: 10 µg/mL

## Fc1ccc(C[n+]2ccn(CC(OCc3ccc(Cl)cc3Cl)c3ccc(Cl)cc3Cl)c2)cc1.[I-] (stereo not drawn) [CH2C6H4pF, 1-[2,4-Dichloro-β-(2,4-dichlorobenzyloxy)phenethyl]-3-(p-fluorobenzyl)-imidazolium iodide]
Pseudomonas aeruginosa; tested at 100, 10, 1 μg/ml
  MIC: 100 µg/mL
Streptococcus pyogenes
  MIC: 1 µg/mL
[1]
  MIC: 10 µg/mL
[2]
  MIC: 1 µg/mL
Erysipelothrix insidiosa
  MIC: 10 µg/mL
Escherichia coli
  MIC: 100 µg/mL

## OC(Cn1cc[n+](CC(OCc2ccc(Cl)cc2Cl)c2ccc(Cl)cc2Cl)c1)c1ccc(Cl)cc1.[Br-] (stereo not drawn) [CH2CHOHC6H4pCl, 1-(p-chloro-β-hydroxyphenethyl)-3-[2,4-dichloro-β-(2,4-dichlorobenzyloxy)phenethyl]imidazolium bromide]
Pseudomonas aeruginosa; tested at 100, 10, 1 μg/ml
  MIC: 100 µg/mL
Streptococcus pyogenes
  MIC: 1 µg/mL
[1]
  MIC: 10 µg/mL
[2]
  MIC: 1 µg/mL
Erysipelothrix insidiosa
  MIC: 1 µg/mL
Escherichia coli
  MIC: 10 µg/mL
